The values below come from ChEMBL document CHEMBL2439970 (Bioorg Med Chem Lett, 2013).

Structures are written as SMILES.

Holding throughout (type): ADME, organism-based
Data set [1] in a line: Oral bioavailability in Sprague-Dawley rat 2 mg/kg. The note with it: in vivo.
A short description of data set [2]: Half life in Sprague-Dawley rat at 1 mg/kg, iv and 2 mg/kg, po. The note with it: in vivo.
The next data set has as its system Rattus norvegicus. Put plainly: Dose normalized AUC in Sprague-Dawley rat 2 mg/kg, po. Conditions: in vivo. Details: dose 2 mg/kg, route oral.
Data set [3] can be described thus: Clearance in Sprague-Dawley rat at 1 mg/kg, iv and 2 mg/kg, po. The note with it: in vivo.
The nature of data set [4]: Volume of distribution at steady state in Sprague-Dawley rat at 1 mg/kg, iv and 2 mg/kg, po. The note with it: in vivo, read-out: Vdss.

As usually defined, the bioavailability is dose-corrected exposure relative to a reference, in per cent. For orientation: half-life means how long it takes for the measured level to halve. Consider `O=C1OCCc2cc(CCN3CCN(C(=O)Cc4ccc(-n5cnnn5)cc4)CC3)ccc21`, for which the bioavailability in data set [1] is 52%. Besides, the half-life in data set [2] is 30 min. Also, the AUC/dose with Rattus norvegicus is 0.48 µM·kg·h/mg. The clearance in data set [3] was 43 mL/min/kg. In addition, the Vd in data set [4] amounted to 1.3 L/kg.
For `O=C1OCc2cc(CCN3CCN(C(=O)Cc4ccc(-n5cnnn5)cc4)CC3)ccc21`, in that order: 33%, 37.2 min, 0.34 µM·kg·h/mg, 40 mL/min/kg and 0.66 L/kg.
